Test results published in US20240002350A1, “PROTEIN AND LIPID THERAPEUTIC TARGETS” (UNIVERSITY OF PITTSBURGH-OF THE COMMONWEALTH SYSTEM OF …, priority 2020, published 2024).
Like-named read-outs stand apart in the source and are kept apart here.

What was measured:
15LOX/PEBP1 = assay: Potency of 15LOX/PEBP1 inhibitors with anti-ferroptotic effect (Table 1); type: cell-based
Source text: Development and testing of new compounds that inhibit 15LOX/PEBP1 complex activity. A combination of computational and experimental studies are used. […] Computer modeling considers specific features of organization of 15LOX/PEBP1 complexes and positioning of AA-PE as well as regio-specific oxygenation of AA-residues at 15th carbon. […] It has been shown that: i) binding interface of 15LOX in 15LOX/PEBP1 complex includes a helix on 15LOX (α2) and kinase binding epitope (D144, H145, R146) on PEBP1 (FIG. 8); and ii) interfacial interactions play a pivotal role in allosterically altering conformational dynamics of 15LOX in complex, and its substrate specificity. Analysis of change in access to catalytic site upon PEBP1 binding, using elastic network models indicates needed sites at 15LOX/PEBP1 binding interface. Dynamics simulations are also performed, for 15LOX alone and 15LOX/PEBP1 complex. An effective inhibitor, NCG-01, with in vivo activity has been indicated. Several other 15LOX/PEBP1 inhibitors with anti-ferroptotic effect (FIG. 9) have been identified. To test the effectiveness of compounds identified from the computational screen, RSL3 and mechanical stretch models with LDH and PI assays as a primary outcome are performed. The compounds that inhibit cell death by at least 50% are then evaluated for their effects on AA-PE and AA oxidation by 15LOX/PEBP1 complex and 15LOX alone, respectively, by LC-MS. Evaluation of the effect of compounds in suppressing AA-PE-OOH formation in cells upon proferroptotic stimuli is also performed.

[1] = test system: ferroptosis triggered by RSL3 (GPX4 inhibition) or Erastin (GSH depletion) in cells; assay: Suppression of ferroptosis triggered by RSL3 or Erastin in cells; type: cell-based; settings: read-out: half maximal activity, suppression of ferroptosis
Procedure: (§1) FIGS. 7A-7C show 15LOX/[…] complex inhibitor, NCGC00599973-01.
FER.1 (500 nM) is positive control. Insert: Chemical formula of two of the compounds.
(§2) It was established that a change in substrate specificity of 15LOX is achieved upon complex formation with PEBP1 whereby structural rearrangements are mainly responsible for the selectivity and specificity leading to the formation of 15-HOO-AA-PE as the oxidation product. Thus, new selective anti-ferroptotic inhibitors of 15LOX/PEBP1 complex were designed. These inhibitors should not interfere with oxidation of free AA, DPA, DHA. […] The compound is a poor inhibitor of 15LOX alone with free AA as a substrate. […] Site 1 is at 15LOX/PEBP1 binding interface (binding energy −10.1 kcal/mol) and site 2 is at catalytic site (binding energy −8.9 kcal/mol).

15LOX alone = assay: Inhibition of 15LOX alone with free AA as a substrate; type: biochemical; settings: 20 μM
Source text: as §2
(§3) Development and testing of new compounds that inhibit 15LOX/PEBP1 complex activity. A combination of computational and experimental studies are used. […] Computer modeling considers specific features of organization of 15LOX/PEBP1 complexes and positioning of AA-PE as well as regio-specific oxygenation of AA-residues at 15th carbon. […] The compounds that inhibit cell death by at least 50% are then evaluated for their effects on AA-PE and AA oxidation by 15LOX/PEBP1 complex and 15LOX alone, respectively, by LC-MS. […]

15LOX/PEBP1 complex = assay: Inhibition of activity of 15LOX/PEBP1 complex; type: biochemical
Source text: as §2, §3

HOO-AA-PE = assay: RSL3-induced accumulation of pro-ferroptotic HOO-AA-PE in vitro; type: cell-based
Source text: as §1, §2

[2] = test system: whole body irradiation (9.25Gy); assay: Survival after whole body irradiation; type: in vivo; settings: oxidant injury induced by ionizing radiation
Source text: as §1, §2

Structure (SMILES): Fc1cccc(-n2cc(-c3ccccc3)nc2SCc2ccc(C(F)(F)F)cc2)c1 [Compound 12, 1-(3-fluorophenyl)-4-phenyl-2-((4-(trifluoromethyl)benzyl)thio)-1H-imidazole]
- Potency (15LOX/PEBP1): ++ (++ = 101-1000 nM)
- EC50 ([1]; ferroptosis triggered by Erastin (GSH depletion) in cells): 140 nM
- EC50 ([1]; ferroptosis triggered by RSL3 (GPX4 inhibition) in cells): 175 nM
- inhibition of 15LOX alone (15LOX alone): ~4.5%
- activity of 15LOX/PEBP1 complex (15LOX/PEBP1 complex): inhibits activity
- RSL3-induced accumulation of pro-ferroptotic HOO-AA-PE (HOO-AA-PE): suppresses
- survival [2]: improves survival
